Data set [1] deals with human TRPA1 (Homo sapiens, UniProt O75762). The experiment in a line: Inhibition of the TRPA1 ion channel, whole cell patch configuration (Example 1). Format: cell-based. The following applies: current activation 10 µM AITC, read-out: Human TRPA1 IC50 Inward Current. The procedure:
Compounds of Formula (Ia) inhibit the TRPA1 channel, as measured using the method of Example 1. […] Data for TRPA1 inhibition and for TRPA1 selectivity was obtained by this method for the indicated compounds of Formula (Ia), with the relevant data included in Tables 1a - f below. All currents were recorded in whole-cell configuration using EPC-9 and EPC-10 amplifiers and Patchmaster software (HEKA). […] The standard pipette solution consisted of 140mM CsAsp, 10 mM EGTA, 10 mM HEPES, 2.27 mM MgCl2, 1.91 mM CaCl2, 4 mM MgATP, and 0.1-0.3 mM Na2GTP, with pH adjusted to 7.2 with CsOH. In addition, a solution containing 145 mM CsCl, 10 mM HEPES, 10 mM EGTA and 1 mM MgCl2 (pH 7.2 adjusted with CsOH) can be used. The standard bath solution contained 150 mM NaCl, 10 mM HEPES, 10 mM glucose, 4.5 mM KCl, 1 mM EGTA, 3 mM MgCl2, with pH adjusted to 7.4 with NaOH. In some instances, 2 mM CaCl2 was added in place of EGTA and the concentration of MgCl2 was reduced to 1 mM.
Data were collected either by continuous recordings at -60 mV or by applying voltage ramps from a holding potential of 0 mV every 4 s. Continuous recordings were collected at 400 Hz and digitally filtered off-line at 10 Hz for presentation. Voltage ramps were applied from - 100 mV to 100 mV over the course of 400 ms, and data were collected at 10 kHz and filtered at 2.9 kHz. Inward and outward currents were analyzed from the ramps at -80 and 80 mV, respectively. Liquid junction potential correction was not used.
Solutions were switched using a gravity-fed continuous focal perfusion system. To achieve rapid temperature changes, two temperature control, and perfusion systems were employed simultaneously. For temperatures ≥ 22°C, a Warner Instruments bipolar temperature controller (TC-344B) and inline heater (SHM-8) were used. […] Temperatures were confirmed using a thermistor (Warner Instruments, TA-29), with temperatures at the recorded cell estimated to be within +/- 2°C of those reported.
The antagonist effects of compounds of Formula (Ia) against human TRPA1 ("hTRPA1") and for some compounds rat TRPA1 ("rTRPA1") in a whole cell patch configuration were evaluated using the in vitro assay described above. The current activation tested was 10 µM AITC, and the tested concentrations ranged from 5 µM and 500 nM. Table 1a (Comparative Compounds)

Data set [2] concerns rats. The data set can be described thus: Rodent formalin pain model (Example 3). It counts as in vivo. The following applies: rat; for Duration of Pain Behavior: first two minutes after formalin, vehicle 88.6. On the procedure:
Compounds of Formula (Ia) are active in rodent models of pain induced by direct activation of the TRPA1 channel with intraplantar injection of the TRPA1 agonist formalin. Compounds of Formula (Ia) were tested in the formalin-induced pain test reported by Abbott et. al. Pain. 1995 Jan;60(1):91-102. Dubuisson et al. describe a method for assessing pain and analgesia in rats. Briefly, dilute formalin (50 µL of 3 % formalin) is injected into the plantar surface of the hind paw. […] The individual responsible for counting the pain behaviors in a particular study is blinded to the treatment groups.
Table 2 is a data table showing the results from testing compounds of Formula (Ia) in the rodent formalin-induced pain model described in […]. Rats were treated with the compounds of Formula (Ia) at various doses (0.1, 0.3, 1, 1.2, 3, 4, 10, or 30 mg/Kg IV) or with a control composition containing the vehicle (i.e., without a compound of Formula (Ia)). Pain behaviors (flinch, lift, lick, bite) were monitored following intraplantar formalin injection. Referring to Table 2, the minimum effective dose was derived from dose resulting in statistically significant difference in behavior at 0 - 2 min time period as compared with vehicle (p≤0.05).

In data set [3] the test system is Female Sprague Dawley rats. The experiment in a line: Rodent acute tolerability test with liver function tests (Example 5). Format: in vivo, rat. Also on record: key to Alterations in LFT: (↔) indicates blood levels of markers for potential liver damage within normal range; (↑) indicates blood levels of markers for potential liver damage elevated above normal range. The following applies: single IV bolus dose 100 mg/kg, about 24 hours post dose. The procedure: Compounds of Formula (Ia) were assessed for acute tolerability in a rodent model at dose levels ranging from 100 - 200 mg/kg based upon the minimum efficacious dose of each compound. Female Sprague Dawley rats were administered up to a 10 mL/kg dose volume of each compound in 0.9% saline at appropriate concentrations as an intravenous bolus via the lateral tail vein. The animals were observed immediately post dose and for up to twenty four hours post dose and clinical observations were recorded. Additionally, approximately twenty four hours post dose animals were euthanized and blood taken for serum chemistry analysis with a focus on liver function tests (LFTs). The maximum tolerated single dose and LFT results are summarized in Table 3, where (↔) indicates blood levels of markers for potential liver damage within normal range and (↑) indicates blood levels of markers for potential liver damage elevated above normal range. Referring to the data in Table 3, LFT blood levels of markers for potential liver damage remained within normal range for the compounds of Formula (Ia), while LFTs were elevated for Comparator Compounds including 5-10 fold elevation above normal for ALT and AST blood levels observed upon administration of Comparative Compound 1. […]

Data set [4] can be described thus: Aqueous solubility in buffered solutions, HPLC (Example 2). The following applies: kinetic from dmso stock, ambient temperature. It counts as physicochemical.
For data set [5], the system named is sheep. The data set can be described thus: Sheep model of experimental allergic asthma, Ascaris suum antigen challenge (Example 6). The note with it: for inhibition of the AHR / inhibition of the EAR / inhibition of the LAR: sheep; for Average Early Airway Response (EAR) / Average Late Airway Response (LAR) / Airway Hyperresponsiveness (AHR): 4 days; for Average Early Airway Response (EAR): average increase in RL 0-4h after challenge; for Average Late Airway Response (LAR): average increase in RL 5-8h after challenge; for Airway Hyperresponsiveness (AHR): ratio of post challenge PC400 to pre challenge PC400. It counts as in vivo. The procedure: Compounds were tested in the sheep model of experimental asthma reported in Abraham WM, Asthma & Rhinitis, 2000: 1205-1227. All animals were tested for both early and late stage airway responses to inhalation challenge with Ascaris suum antigen.
The unsedated sheep were restrained in a cart in the prone position with their heads immobilized. After topical anesthesia of the nasal passages with 2% lidocaine solution, a balloon catheter was advanced through one nostril into the lower esophagus. The animals were intubated with a cuffed endotracheal tube through the other nostril. Pleural pressure was estimated with the esophageal balloon catheter. Lateral pressure in the trachea was measured with a sidehole catheter advanced through and positioned distal to the tip of the endotracheal tube. Transpulmonary pressure, the difference between tracheal and pleural pressure, was measured with a differential pressure transducer catheter system. For the measurement of pulmonary resistance (RL), the proximal end of the endotracheal tube was connected to a pneumotachograph. The signals of flow and transpulmonary pressure were recorded on an oscilloscope recorder, which was linked to a computer for on-line calculation of RL from transpulmonary pressure, respiratory volume (obtained by digital integration) and flow. Analysis of 5-10 breaths were used for the determination of RL in cm H2O / L x sec^-1.
Aerosols of Ascaris suum extract (diluted 20:1 with phosphate buffered saline; 82,000 PNU/ml) were generated using a disposable medical nebulizer (Raindrop^R, Puritan Bennett). The output from the nebulizer was directed into a plastic t-piece, one end of which was connected to the inspiratory port of a Harvard respirator. To better control aerosol delivery, a dosimeter consisting of a solenoid valve and a source of compressed air (20 psi) was activated at the beginning of the inspiratory cycle of the Harvard respirator system for 1 s. The aerosol was delivered at a tidal volume of 500 ml and a rate of 20 breaths per minute. Each sheep was challenged with an equivalent dose of antigen in the control and drug trials. Carbachol aerosols were also generated with this same nebulizer system.
For the carbachol concentration response curves, measurements of RL were repeated immediately after inhalation of buffer and after each administration of 10 breaths of increasing concentrations of carbachol solution (0.25%, 0.5%, 1.0%, 2.0% and 4.0% w/v). To assess airway responsiveness, the cumulative carbachol dose in breath units (BU) that increased RL 400% over the post-buffer value (i.e. PC 400) was calculated from the dose response curve. One breath unit was defined as one breath of a 1% w/v carbachol solution.
Compound 5-T was given at doses of 1, 3 and 10 mg/kg given orally once a day for 3 days and on day 4, 2 hours before antigen challenge. A group of sheep also received a vehicle control.
A pre-challenge (baseline) PC 400 was obtained 1-3 days before the start of dosing. Then on the day of antigen challenge, the sheep received the last dose of Compound 5-T 2h before antigen challenge. Values of lung resistance (RL) were measured at baseline, 1.5 h after drug treatment and, then, serially for 8h after challenge with Ascaris suum antigen. Measurements of RL were obtained 24 h after challenge followed by the 24 h post challenge determination of PC 400. Responses to antigen challenge with drug and/or vehicle treatment were compared to each animal's historical control.
Two groups of animals (n=3) were used for these studies. Group 1 received the vehicle control and the 1 mg/kg dose. Group 2 received the 3 mg/kg dose and the 10 mg/kg dose. A Repeated Measures Analysis of Variance was used to compare the responses within each group to their historical control. If a significant difference was found, then Tukey's post hoc test was used to determine pair wise differences. […]

[6] abbreviates: sodium bicarbonate buffer in water for injection/5% dextrose, pH 9.0, 50 mM sodium bicarbonate, read-out: pH 9.0 aqueous solubility.
Where [7] appears, read: sodium phosphate buffer in water for injection/5% dextrose, pH 7.4, 75 mM sodium phosphate, read-out: pH 7.4 aqueous solubility.

≈ marks a conversion by molar mass, not a printed value. Where two headings read alike, the source gives them in different places. Marks after values point to notes of the source that are not given here. A value given as a limit tells only on which side of the number the result lay.

As a reminder, the IC50 is the point on the concentration scale where inhibition reaches its midpoint.

Chain of human TRPA1 (O75762 whole entry): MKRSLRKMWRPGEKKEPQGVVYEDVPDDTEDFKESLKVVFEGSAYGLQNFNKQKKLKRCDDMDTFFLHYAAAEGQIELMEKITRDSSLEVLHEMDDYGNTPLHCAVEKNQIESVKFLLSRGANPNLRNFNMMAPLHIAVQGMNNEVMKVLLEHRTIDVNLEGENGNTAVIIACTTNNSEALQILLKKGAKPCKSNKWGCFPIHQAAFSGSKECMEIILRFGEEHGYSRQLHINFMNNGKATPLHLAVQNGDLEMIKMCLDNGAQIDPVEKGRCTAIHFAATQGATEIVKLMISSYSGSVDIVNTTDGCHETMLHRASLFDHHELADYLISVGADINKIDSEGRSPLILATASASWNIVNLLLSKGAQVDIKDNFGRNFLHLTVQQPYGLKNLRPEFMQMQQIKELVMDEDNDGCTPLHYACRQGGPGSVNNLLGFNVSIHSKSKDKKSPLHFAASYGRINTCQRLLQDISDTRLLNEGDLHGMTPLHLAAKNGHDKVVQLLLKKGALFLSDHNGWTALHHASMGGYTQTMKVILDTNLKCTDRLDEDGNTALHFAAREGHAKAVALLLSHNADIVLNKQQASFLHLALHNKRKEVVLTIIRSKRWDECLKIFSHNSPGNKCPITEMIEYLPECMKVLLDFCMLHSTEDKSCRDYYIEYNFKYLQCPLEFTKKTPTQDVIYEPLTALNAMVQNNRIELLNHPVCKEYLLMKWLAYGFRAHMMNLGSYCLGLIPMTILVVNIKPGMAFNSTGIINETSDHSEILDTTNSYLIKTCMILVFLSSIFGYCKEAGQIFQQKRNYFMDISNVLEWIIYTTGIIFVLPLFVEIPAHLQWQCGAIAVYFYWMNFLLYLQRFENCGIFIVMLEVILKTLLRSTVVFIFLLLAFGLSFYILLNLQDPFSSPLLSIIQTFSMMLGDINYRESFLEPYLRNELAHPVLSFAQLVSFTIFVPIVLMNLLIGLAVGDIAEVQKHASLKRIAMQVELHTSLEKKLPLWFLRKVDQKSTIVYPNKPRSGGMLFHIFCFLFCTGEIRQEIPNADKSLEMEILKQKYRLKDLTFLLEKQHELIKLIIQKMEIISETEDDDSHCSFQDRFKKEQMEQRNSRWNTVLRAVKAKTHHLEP

For `C[C@@H](C(=O)N(COP(=O)(O)O)c1cncc(-c2cnc(N3CCCC3(C)C)nc2)n1)n1cnc2c1c(=O)n(C)c(=O)n2C` [Compound 2-E, (S)-(2-(1,3-dimethyl-2,6-dioxo-1,2,3,6-tetrahydro-7H-purin-7-yl)-N-(6-(2-(2,2-dimethylpyrrolidin-1-yl)pyrimidin-5-yl)pyrazin-2-yl)propanamido)methyl dihydrogen phosphate], the IC50 in data set [1] is above 100 nM. Also, the “Minimal Efficacious Dose of Compound in Formalin Model” value in data set [2] (IV, statistically significant difference vs vehicle at 0 - 2 min (p≤0.05)) amounted to 3 mg/kg. For the same compound, the entries for the “Duration of Pain Behavior” value in data set [2] (dose 0.3 mg/kg IV), in data set [2] (dose 1 mg/kg IV) and in data set [2] (dose 3 mg/kg IV) were 80.4 s, 77 s and 15.1 s, respectively. Also, the “Alterations in LFT” value in data set [3] is recorded as “↔”. Further, in data set [3], the “LFT: % upper normal range ALT serum levels” value is listed as below 100%/<100%. In data set [3], the “LFT: % upper normal range AST serum levels” value is listed as below 100%/<100%. Further, the solubility kinetic at 24 h in data set [4] (setting [6]) and in data set [4] (setting [7]) was above 1000 µg/mL in each case.

Take `C[C@@H](C(=O)Nc1cncc(-c2cnc(N3CCC[C@H]3C(F)(F)F)nc2)n1)n1cnc2c1c(=O)n(C)c(=O)n2C` [Compound 5-T, (S)-2-(1,3-dimethyl-2,6-dioxo-1,2,3,6-tetrahydro-7H-purin-7-yl)-N-(6-(2-((S)-2-(trifluoromethyl)pyrrolidin-1-yl)pyrimidin-5-yl)pyrazin-2-yl)propanamide]: in data set [1], the IC50 is below 25 nM. Moreover, the “inhibition of the AHR” value in data set [5] (1 mg/Kg dose) is listed as 45%; in data set [5] (3 mg/Kg dose) it was 100%; in data set [5] (10 mg/Kg dose) it was 100%. Further, the entries for the “inhibition of the EAR” value in data set [5] (1 mg/Kg dose), in data set [5] (3 mg/Kg dose) and in data set [5] (10 mg/Kg dose) were “no effect on EAR”, 51% and 72%, respectively. Also, the “inhibition of the LAR” value stood at 48% in data set [5] (1 mg/Kg dose), 78% in data set [5] (3 mg/Kg dose) and 79% in data set [5] (10 mg/Kg dose). Besides, the “Average Early Airway Response (EAR)” value was 171 ± 17 in data set [5] (1 mg/Kg orally once a day, Control 1 175 ± 25); 95 ± 6 in data set [5] (3 mg/Kg orally once a day, Control 2 195 ± 15); 55 ± 2*^ in data set [5] (10 mg/Kg orally once a day, Control 2 195 ± 15). Besides, the “Average Late Airway Response (LAR)” value in data set [5] (1 mg/Kg orally once a day, Control 1 113 ± 4) is reported as 59 ± 1*^+; in data set [5] (3 mg/Kg orally once a day, Control 2 107 ± 5), 24 ± 1; in data set [5] (10 mg/Kg orally once a day, Control 2 107 ± 5), 22 ± 3. In addition, the “Airway Hyperresponsiveness (AHR)” value in data set [5] (1 mg/Kg orally once a day, Control 1 0.49 ± 0.04) is listed as 0.71 ± 0.01*^+; in data set [5] (3 mg/Kg orally once a day, Control 2 0.41 ± 0.01), 0.92 ± 0.08; in data set [5] (10 mg/Kg orally once a day, Control 2 0.41 ± 0.01) it was 1.00 ± 0.14. Moreover, the “inhibition of the average early airway response (EAR), compared to Comparative Compound 2” value in data set [5] (at the doses tested) is on record as “improved inhibition”. For the same compound, in data set [5] (doses 1, 3 and 10 mg/kg orally), the “inhibition of the average late airway response (LAR) and the airway hyperresponsiveness (AHR)” value was “dose dependent inhibition”. Further, the solubility kinetic at 24 h in data set [4] (setting [6]) was 7 µg/mL (≈ 12.9 µM); in data set [4] (setting [7]), 5 µg/mL (≈ 9.18 µM).

These data come from patent publication EP2945947B1, “INHIBITING THE TRANSIENT RECEPTOR POTENTIAL A1 ION CHANNEL” (Merck Sharp & Dohme Corp., priority 2013, dated 2014).
